Entries after “also recorded” stand apart in the source; their conditions may differ. Read-outs that look alike come from different tables or passages of the source.
Tests used:
thymocytes [1] = assay: Thymus cellularity and thymocyte subsets after drug-induced thymus depletion; conditions: mice, i.p. treatment
Method: (§1) Male and female C57B16 mice aged at 4-8 weeks were obtained from Monash Animal Services and housed under SPF conditions.
(§2) Control mice were injected with the same volume of PBS.
Control mice were given PBS alone.
(§3) Mice were given either 20 mg/kg Dexamethasone (Lyppards, Australia) or the equivalent volume of PBS as a single i.p. injection.
(§4) In all experiments, the final day of treatment was designated as Day 0. Mice were then humanely killed by CO2 asphyxiation at various timepoints.
(§5) Each thymus was thoroughly cleaned of fat and connective tissue and its capsule nicked with fine scissors. Each thymus was then incubated at 37° C. for 10 minutes in 2 mL of 0.125% (w/v) Collagenase D with 500 μL of 0.1% (w/v) DNAse I (both from Roche, Germany) in RPMI-1640, with regular agitation. The supernatant was collected, kept on ice, and the digestion repeated using the remaining settled thymic fragments. After 3 digestions, the remaining aggregates were incubated for 10 minutes with 1 mL of 0.125% (w/v) Collagenase/Dispase (Roche, Germany) with 500 μL 0.1% (w/v) DNAse I in RPMI-1640. Cells from all supernatant fractions were then pooled and centrifuged at 472 gmax for 5 minutes, then resuspended in cold EDTA/FACS buffer (5 mM EDTA in PBS with 2% FCS and 0.02% NaN3). Cells were filtered through 100 μm mesh. Cell counts were performed using a Z2 Coulter Counter (Beckman Coulter USA).
(§6) Male and female C57B1/6J (B6) mice aged at 8-12 weeks were obtained from Monash Animal Services and housed under SPF conditions, in accordance with institutional guidelines.
(§7) In all experiments, the final day of treatment was designated as Day 0. Mice were then humanely killed by CO2 asphyxiation at indicated timepoints.
(§8) Briefly, thymi were agitated in RPMI-1640 to flush out thymocytes. After collecting supernatant, thymic fragments were incubated individually at 37° C. for 10 minutes in 2 mL of 0.125% (w/v) Collagenase D with 500 μL of 0.1% (w/v) DNAse I (both from Roche, Germany) in RPMI-1640, with regular agitation. The supernatant was collected, kept on ice, and the digestion repeated three times, followed by a final 10 minute digestion in 1 mL of 0.125% (w/v) Collagenase/Dispase (Roche, Germany) with 500 μL 0.1% (w/v) DNAse I in RPMI-1640. The supernatant fractions were then pooled and centrifuged, keeping each thymus separate, at 472 gmax for 5 minutes, and resuspended in cold EDTA/FACS buffer (5 mM EDTA in PBS with 2% FCS and 0.02% Sodium Azide). Cells were filtered through 100 μm mesh. Cell counts were performed using a Z2 Coulter Counter (Beckman Coulter USA).

thymic epithelial cells [2] = assay: Thymic epithelial cell (TEC) subsets by flow cytometry after drug-induced thymic damage; conditions: for effect on TEC subsets: mice, i.p. treatment
Method: as §2
Control mice were given PBS alone.
as §3, §4, §5
(§9) Cells were washed in cold EDTA/FACS buffer and 5×10^6 cells dispensed into 96 well round-bottom plates, Cells were suspended in 50 μL of a primary mAb (hybridoma supernatant or suboptimal dilution of purified antibody) or conjugate for 15 minutes at 4° C. in the dark, followed by a wash step (200 μL EDTA/FACS buffer, 1300 rpm centrifuge for 3 minutes). Secondary mAb were then added and incubated and cells were washed twice. For intracellular staining, cells were washed once in cold PBS then fixed and permeabilised using the BD Cytofix/Cytoperm kit (BD Biosciences, USA) according to the manufacturer's instructions. Cells were stained with 50 μL of primary antibody diluted in PermWash buffer for 30 mins, then washed in PermWash buffer and incubated with secondary antibody where required. Cells were washed in PermWash, then finally washed in FACS buffer, before being resuspended in 200 μL of FACS or EDTA/FACS buffer for acquisition.
(§10) A FACScalibur and CellQuest software (BD Biosciences, USA) were used for flow cytometric analysis, using four fluorescent channels (FL1 for FITC, FL2 for PE, FL3 for CyChrome/PECy5, PerCP and PI, and FL4 for APC). All compensations were performed on single colour labelling of an appropriate cell sample containing both positive and negative populations. Exclusion of non-viable and haemopoietic cells was based on forward light scatter versus side light scatter and CD45 expression respectively.
as §7, §8

Aire = Aire expression in mTEC during thymic recovery
Text: Primary antibodies and lectins used were FITC-conjugated UEA-1 lectin (Silenus?), Ki67 (BD), PE-conjugated Ly51 (clone 6C3, Pharmingen) Ki67 (BD), I-A/I-E (BD), CD45 (LCA)(BD), PerCP Cy5.5 conjugated CD45 (BD), APC-conjugated I-A/I-E (Miltenyi), biotinylated CD31 (BD), and EpCAM (G8.8a, prepared in-house from a clone kindly donated by Dr. A. Fan) MTS15 hybridoma supernatant (prepared in-house), rat anti-mouse Aire (a kind gift from Dr. H. Scott). Secondary reagents used were FITC-conjugated anti-rat IgG2c, Streptavidin PerCPCy5.5 and Streptavidin APC.
Antibodies and conjugates were obtained from BD Pharmingen (USA) unless otherwise indicated. […] Secondary antibodies used were anti-rat IgG2c (Southern Biotech, USA), anti-rat IgG2a (Southern Biotech, USA) Streptavidin PerCP Cy5.5 and Streptavidin APC, anti-rabbit IgG-Alexa 488 (Invitrogen, USA).

thymic epithelial cells [3] = conditions: mouse, in vivo
Method: as §2
Control mice were given PBS alone.
as §3, §4, §5, §9, §10, §7, §8

thymocytes [4] = conditions: mouse, in vivo
Method: as §1, §2
Control mice were given PBS alone.
as §3, §4, §5, §6, §7, §8

[5] = days after cessation of treatment

SMILES	effect on all thymocyte subsets (thymocytes [1])	effect on thymic cellularity / thymic involution (thymocytes [1])	recovery of mTEC-lo cells to normal / untreated levels (thymic epithelial cells [2]; [5])	return of TEC subsets to normal / homeostatic proportions (thymic epithelial cells [2]; [5])	effect on TEC subsets (thymic epithelial cells [2])	effect on TEC subsets (thymic epithelial cells [2]; listed as cyclophosphamide)	effect on non-TEC stromal cells (thymic epithelial cells [2]; mouse, in vivo)	effect on Aire expression (Aire; by treatment)	recovery of mTEC-hi (thymic epithelial cells [3])	return of TEC subsets to normal / homeostatic proportions (thymic epithelial cells [3])	return of cTEC to normal levels / homeostasis (thymic epithelial cells [3])	effect on Aire expression (Aire; mouse, in vivo)	return of thymic cellularity to untreated levels (thymocytes [4])	effect on all thymocyte subsets (thymocytes [4]; ip)
O=P1(N(CCCl)CCCl)NCCCO1 (centres unmarked) [Cyclophosphamide]	marked reduction in all thymocyte subsets	severe thymic involution; also recorded: greatest impact on thymic cellularity	≤ 28 days	28 days	mTEC-Hi were proportionally the major subset effected; also recorded: ablated all TEC subsets	TEC as a population are significantly reduced	not effected	almost completely abrogated						
C[C@@H]1C[C@H]2[C@@H]3CCC4=CC(=O)C=C[C@]4(C)[C@@]3(F)[C@@H](O)C[C@]2(C)[C@@]1(O)C(=O)CO [Dexamethasone]									≤ 14 days	≤ 28 days	≤ 7 days	almost completely abrogated	≤ 14 days	marked reduction in all thymocyte subsets

Source: patent US20100178700A1, “NOVEL THYMIC CELLULAR POPULATIONS AND USES THEREOF” (priority 2007, published 2010)
